According to patent publication US20220402948A1, “EGFR INHIBITOR, COMPOSITION AND PREPARATION METHOD THEREFOR” (BETTA PHARMACEUTICALS CO., LTD., priority 2019, published 2022):
pIC50: −log10 of the molar value. Where two headings read alike, the source gives them in different places.

Experiments:
[1] = biological target: EGFRΔ19del/T790M/C797S (Homo sapiens, UniProt P00533, T790M/C797S, form not given); assay: EGFR Δ19del/T790M/C797S kinase test (mobility variation analysis, Caliper EZ Reader); type: biochemical; settings: kinase enzymatic activity, Table 1
Summary of the method: (§1)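 Read-out is substrate-to-product conversion by mobility shift, stopped after incubation at room temperature with ATP and substrate, following a 10-minute room-temperature compound–enzyme pre-incubation. IC50 obtained by four-parameter variable-slope fitting of inhibition normalized between enzyme-free and uninhibited controls.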

[2] = biological target: IGF1R (Homo sapiens, UniProt P08069); assay: IGF1R kinase test (mobility variation analysis, Caliper EZ Reader); type: biochemical; settings: kinase enzymatic activity, Table 1; read-out: EGFR IGF1R IC50
Summary of the method: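 Mobility-shift readout of substrate conversion, normalised to positive (no compound) and negative (no kinase) controls, gives % inhibition and IC50 by four-parameter fit. Compounds, 3-fold dilutions over 10 concentrations starting at 3000 nM, preincubated 10 min with kinase before ATP/substrate start; room temperature.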

[3] = biological target: EGFR WT (Homo sapiens, UniProt P00533); assay: EGFR WT kinase test (mobility variation analysis, Caliper EZ Reader); type: biochemical; settings: kinase enzymatic activity, Table 1
Summary of the method: as §1

[4] = tested on: A431; assay: A431 cell proliferation assay (CellTiter Glo, 72 hours); type: cell-based; settings: cell proliferation, A431, 72 hours, Table 2, read-out: A431 IC50
Experimental: (§2) Cell line: Ba/F3 cells with EGFR Δ19del/T790M/C797S mutation gene stably overexpressed named Ba/F3-Δ119del/T90M/C797S, and A431 and Ba/F3-EGFR wild-type cell line.
RPMI 1640 and 10% FBS and 1% PS; DMEM and 10% FBS and 1% PS.
a) Dilute the test compound (20 mM stock solution) to 10 mM with 100% DMSO as the starting concentration, and then serially dilute 3 times with a “9+0” concentration in 96-well dilution plate (Cat #P-05525, Labcyte);
b) Dilute compound solution thereof to 1:100 (1:20 for comparative compound 1 and compounds 1-38) in medium to prepare 10-fold working solution;
(§3) a) Centrifuge the growth cells in logarithmic phase at 1000 rpm for 5 minutes, resuspend the cells in culture medium, and then count the cells;
(§4) b) Inoculate the cells into a 96-well cell culture plate with a density of 2000 cells/well;
a) Compounds prepared at step 2 were added to cell plate with 15 μl per well, the final concentrations were 1000, 333, 111.1, 37, 12.3, 4.1, 1.4, 0.5, 0.2 and 0 nM, and the final concentration of DMSO was 0.1%. The blank control well was a culture medium (0.1% DMSO) (the blank control well of comparative compound 1 and compounds 1-38 was a culture medium (0.5% DMSO).
(§5) b) Incubate cells in an incubator for another 72 hours.
(§6) a) Take out the 96-well cell culture plate and add 50 μl CTG reagent (CellTiter Glo kit, promega, Cat #G7573);
(§7) b) Shake the plate for 2 minutes and let cool at room temperature for 10 minutes;
(§8) c) Read luminous signal value with PerkinElmer reader,
(§9) Analysis of Experimental Data
(§10) The data were analyzed by GraphPad Prism 6.0 software to obtain the fitting curve of compound activity.
Fitting compound IC50 from nonlinear regression equation:
(§11) Y=Min+(Max−Min)/(1+10^((Log IC50−X)*slope));
(§12) X: Logarithm of compound concentration; Y: luminous signal.

[5] = biological target: Ba/F3 cells with EGFR Δ19del/T790M/C797S mutation gene stably overexpressed (Homo sapiens, UniProt P00533, T790M/C797S, cells depend on it, form not given); assay: Ba/F3-Δ19del/T790M/C797S cell proliferation assay (CellTiter Glo, 72 hours); type: cell-based; settings: Table 2, read-out: EGFR Δ19del/T790M/C797S IC50
Experimental: as §2, §3, §4, §5, §6, §7, §8, §9, §10, §11, §12

Sequence of IGF1R (P08069 31-1367, species assumed): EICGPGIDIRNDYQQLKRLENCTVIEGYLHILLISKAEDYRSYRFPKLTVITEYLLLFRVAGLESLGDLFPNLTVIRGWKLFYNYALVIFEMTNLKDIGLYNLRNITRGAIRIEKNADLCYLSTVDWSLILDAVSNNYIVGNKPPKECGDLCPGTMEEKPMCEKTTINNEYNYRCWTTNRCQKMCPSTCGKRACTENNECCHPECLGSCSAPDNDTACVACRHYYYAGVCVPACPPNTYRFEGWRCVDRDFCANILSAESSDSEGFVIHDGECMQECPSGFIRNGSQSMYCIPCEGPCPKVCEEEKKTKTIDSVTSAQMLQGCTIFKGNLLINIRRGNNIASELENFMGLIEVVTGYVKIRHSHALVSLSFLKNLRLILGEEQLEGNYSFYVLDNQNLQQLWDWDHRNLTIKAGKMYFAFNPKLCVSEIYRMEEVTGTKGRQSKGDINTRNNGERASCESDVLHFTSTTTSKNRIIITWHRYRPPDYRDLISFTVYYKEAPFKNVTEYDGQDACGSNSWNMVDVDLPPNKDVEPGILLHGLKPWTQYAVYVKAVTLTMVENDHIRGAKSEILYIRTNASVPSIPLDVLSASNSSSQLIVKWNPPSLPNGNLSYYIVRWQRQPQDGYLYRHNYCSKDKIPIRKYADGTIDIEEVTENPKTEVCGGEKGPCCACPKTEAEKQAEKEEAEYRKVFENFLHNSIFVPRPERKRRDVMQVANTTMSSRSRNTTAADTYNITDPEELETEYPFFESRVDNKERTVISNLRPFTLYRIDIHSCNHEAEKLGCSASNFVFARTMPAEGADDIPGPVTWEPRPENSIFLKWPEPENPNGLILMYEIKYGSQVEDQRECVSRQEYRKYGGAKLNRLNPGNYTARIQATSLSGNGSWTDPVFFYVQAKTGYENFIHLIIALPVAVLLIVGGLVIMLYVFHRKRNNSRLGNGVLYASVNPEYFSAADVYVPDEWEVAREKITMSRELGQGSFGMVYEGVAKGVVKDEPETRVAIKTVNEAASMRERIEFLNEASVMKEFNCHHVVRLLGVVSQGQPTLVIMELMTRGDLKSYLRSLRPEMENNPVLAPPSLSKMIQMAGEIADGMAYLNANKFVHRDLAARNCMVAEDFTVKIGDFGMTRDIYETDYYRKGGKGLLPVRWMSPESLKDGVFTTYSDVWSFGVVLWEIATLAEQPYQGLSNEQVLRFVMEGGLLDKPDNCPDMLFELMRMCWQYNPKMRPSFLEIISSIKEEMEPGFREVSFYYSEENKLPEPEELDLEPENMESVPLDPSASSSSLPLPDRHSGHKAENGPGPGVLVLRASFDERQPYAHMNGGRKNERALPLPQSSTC

| Compound | pIC50 [1] | pIC50 [2] | pIC50 [3] | pIC50 ([4]; Homo sapiens, A-431, 72 h) | GI50 [5] | pIC50 [4] |
| --- | --- | --- | --- | --- | --- | --- |
| CCc1cc(Nc2ncc(Cl)c(Nc3ccc(-c4ccc5ocnc5c4)cc3P(C)(C)=O)n2)c(OC)cc1N1CCC(N2CCN(C)CC2)CC1 [Compound 17, (5-(Benzo[d]oxazol-5-yl)-2-((5-chloro-2-((5-ethyl-2-methoxy-4-(4-(4-methylpiperazin-1-yl)piperidin-1-yl)phenyl)amino)pyrimidin-4-yl)amino)phenyl)dimethylphosphine oxide] | 9.15 | 6.44 | 7.70 | 5.66 | 30 nM | – |
| CCc1cc(Nc2ncc(Br)c(Nc3ccc(-c4cnc(C)cn4)cc3P(C)(C)=O)n2)c(OC)cc1N1CCC(N2CCN(C)CC2)CC1 [Compound 80, (2-((5-Bromo-2-((5-ethyl-2-methoxy-4-(4-(4-methylpiperazin-1-yl)piperidin-1-yl)phenyl)amino)pyrimidin-4-yl)amino)-5-(5-methylpyrazin-2-yl)phenyl)dimethylphosphine oxide] | 9.70 | 7.09 | 7.89 | 5.34 | 8.2 nM | – |
| CCc1cc(Nc2ncc(Br)c(Nc3ccc(-n4cc(C)cn4)cc3P(C)(C)=O)n2)c(OC)cc1N1CCC(N2CCN(C)CC2)CC1 [Compound 86, (2-((5-Bromo-2-((5-ethyl-2-methoxy-4-(4-(4-methylpiperazin-1-yl)piperidin-1-yl)phenyl)amino)pyrimidin-4-yl)amino)-5-(4-methyl-1H-pyrazol-1-yl)phenyl)dimethylphosphine oxide] | 9.15 | 6.66 | 7.57 | 5.79 | 37.4 nM | – |
| CCc1cc(Nc2ncc(Br)c(Nc3ccc(-c4cncnc4)cc3P(C)(C)=O)n2)c(OC)cc1N1CCC(N2CCN(C)CC2)CC1 [Compound 22, (2-((5-Bromo-2-((5-ethyl-2-methoxy-4-(4-(4-methylpiperazin-1-yl)piperidin-1-yl)phenyl)amino)pyrimidin-4-yl)amino)-5-(pyrimidin-5-yl)phenyl)dimethylphosphine oxide] | 9.52 | 6.92 | 7.39 | 6.08 | 20.5 nM | – |
| (2-((5-Bromo-2-((5-ethyl-2-methoxy-4-(4-(4-methylpiperazin-1-yl)piperidin-1-yl)phenyl)amino]amino]pyrimidin-4-yl)amino)-5-(4-methoxy-1H-pyrazol-1-yl)phenyl)dimethylphosphine oxide [Compound 50] | 9.70 | 6.57 | 7.49 | – | 19.1 nM | 5.82 |
| CCc1cc(Nc2ncc(Br)c(Nc3ccc(-c4cnc(C5CC5)cn4)cc3P(C)(C)=O)n2)c(OC)cc1N1CCC(N2CCN(C)CC2)CC1 [Compound 79, (2-((5-Bromo-2-((5-ethyl-2-methoxy-4-(4-(4-methylpiperazin-1-yl)piperidin-1-yl)phenyl)amino)pyrimidin-4-yl)amino)-5-(5-cyclopropylpyrazin-2-yl)phenyl)dimethylphosphine oxide] | 9.40 | 6.72 | 7.74 | 5.25 | 10.7 nM | – |
| CCc1cc(Nc2ncc(Cl)c(Nc3ccc(-c4nnc(C)o4)cc3P(C)(C)=O)n2)c(OC)cc1N1CCC(N2CCN(C)CC2)CC1 [Compound 45, (2-((5-Chloro-2-((5-ethyl-2-methoxy-4-(4-(4-methylpiperazin-1-yl)piperidin-1-yl)phenyl)amino)pyrimidin-4-yl)amino)-5-(5-methyl-1,3,4-oxadiazol-2-yl)phenyl)dimethylphosphine oxide] | 9.40 | 6.91 | 7.50 | 5.97 | 26.2 nM | – |

Other lines, results leading:

| pIC50 [1] | pIC50 [2] | pIC50 [3] | pIC50 ([4]; Homo sapiens, A-431, 72 h) | GI50 [5] | pIC50 [4] | Compound |
| --- | --- | --- | --- | --- | --- | --- |
| 9.22 | 6.31 | 7.54 | 5.99 | 18.9 nM | – | CCc1cc(Nc2ncc(Br)c(Nc3ccc(-c4cccc5c4COC5)cc3P(C)(C)=O)n2)c(OC)cc1N1CCC(N2CCN(C)CC2)CC1 [Compound 11, (2-((5-Bromo-2-((5-ethyl-2-methoxy-4-(4-(4-methylpiperazin-1-yl)piperidin-1-yl)phenyl)amino)pyrimidin-4-yl)amino)-5-(1,3-dihydroisobenzofuran-4-yl)phenyl)dimethylphosphine oxide] |
| 9.30 | 6.75 | 7.54 | 5.79 | 27.6 nM | – | CCc1cc(Nc2ncc(Br)c(Nc3ccc(-c4ccc(C)nc4)cc3P(C)(C)=O)n2)c(OC)cc1N1CCC(N2CCN(C)CC2)CC1 [Compound 82, (2-((5-Bromo-2-((5-ethyl-2-methoxy-4-(4-(4-methylpiperazin-1-yl)piperidin-1-yl)phenyl)amino)pyrimidin-4-yl)amino)-5-(6-methylpyridin-3-yl)phenyl)dimethylphosphine oxide] |
| 9.40 | 6.08 | 7.20 | 5.84 | 23.1 nM | – | CCc1cc(Nc2ncc(Br)c(Nc3ccc(-c4nn(C)c5ncccc45)cc3P(C)(C)=O)n2)c(OC)cc1N1CCC(N2CCN(C)CC2)CC1 [Compound 9, (2-((5-Bromo-2-((5-ethyl-2-methoxy-4-(4-(4-methylpiperazin-1-yl)piperidin-1-yl)phenyl)amino)pyrimidin-4-yl)amino)-5-(1-methyl-1H-pyrazol[3,4-b]pyridin-3-yl)phenyl)dimethylphosphine oxide] |
| 9.52 | 6.94 | 7.44 | 5.82 | 37.4 nM | – | CCOc1ncc(-c2ccc(Nc3nc(Nc4cc(CC)c(N5CCC(N6CCN(C)CC6)CC5)cc4OC)ncc3Br)c(P(C)(C)=O)c2)cn1 [Compound 76] |
| 9.05 | 6.65 | 7.42 | 5.82 | 39.5 nM | – | CCc1cc(Nc2ncc(Br)c(Nc3ccc(-c4ncc(C(C)C)cn4)cc3P(C)(C)=O)n2)c(OC)cc1N1CCC(N2CCN(C)CC2)CC1 [Compound 73, (2-((5-Bromo-2-((5-ethyl-2-methoxy-4-(4-(4-methylpiperazin-1-yl)piperidin-1-yl)phenyl)amino)pyrimidin-4-yl)amino)-5-(5-isopropylpyrimidin-2-yl)phenyl)dimethylphosphine oxide] |
| 9.52 | 6.58 | 7.54 | < 5.00 | 17.4 nM | – | CCc1cc(Nc2ncc(Br)c(Nc3ccc(-c4ccc(N(C)C)nn4)cc3P(C)(C)=O)n2)c(OC)cc1N1CCC(N2CCN(C)CC2)CC1 [Compound 37, (2-((5-Bromo-2-((5-ethyl-2-methoxy-4-(4-(4-methylpiperazin-1-yl)piperidin-1-yl)phenyl)amino)pyrimidin-4-yl)amino)-5-(6-(dimethylamino)pyridazin-3-yl)phenyl)dimethylphosphine oxide] |
| 9.40 | 6.93 | 7.90 | < 5.00 | 18.7 nM | – | CCc1cc(Nc2ncc(Br)c(Nc3ccc(-c4cccc(C#N)c4)cc3P(C)(C)=O)n2)c(OC)cc1N1CCC(N2CCN(C)CC2)CC1 [Compound 5, 4′-((5-Bromo-2-((5-ethyl-2-methoxy-4-(4-(4-methylpiperazin-1-yl)piperidin-1-yl)phenyl)amino)pyrimidin-4-yl)amino)-3′-(dimethylphosphineoxide)-[1,1′-diphenyl]-3-carbonitrile] |
| 9.05 | 7.22 | 7.81 | 6.11 | 23.4 nM | – | CCc1cc(Nc2ncc(Br)c(Nc3ccc(-c4cnn(CCN5CCOCC5)c4)cc3P(C)(C)=O)n2)c(OC)cc1N1CCC(N2CCN(C)CC2)CC1 [Compound 47, (2-((5-Bromo-2-((5-ethyl-2-methoxy-4-(4-(4-methylpiperazin-1-yl)piperidin-1-yl)phenyl)amino)pyrimidin-4-yl)amino)-5-(1-(2-morpholinoethyl)-1hydro-pyrazol-4-yl)phenyl)dimethylphosphine oxide] |
